Experimental data reported in patent US20200290950A1, “ALKAMIDE COMPOUNDS AND USES THEREOF” (NORTH CAROLINA STATE UNIVERSITY, priority 2017, published 2020).

Assays:
[1] = TDI-induced scratching bouts (itch); type: in vivo, mouse; settings: higher dose 1.0%
From the text: (§1) Several different model systems were utilized for these experiments. In one model, dorsal root ganglia were obtained from mice and the neurons cultured in vitro. The neurons were then stimulated in the presence/absence of A15 and YM8-85 and the calcium responses monitored by fluorescence microscopy. In the second model, the alkamides were applied to mouse skin in mineral oil. The reactions of these mice to heat, cold, and tactile stimulation was then compared with mice that had not received treatment with A15. In a third model, mice were sensitized to the chemical compound toluene-2,4-diisocyanate (TDI). TDI is an industrial chemical which causes hypersensitive skin lesions and itching in exposed humans and animals. The physiological response to TDI is complex involving type 2 T lymphocytes, cytokines, mast cells, and neurons. Alkamides were applied to sensitized animals and then ear swelling and bouts of scratching were monitored.
The effects of A15 on TDI-induced itch. The itch response was also monitored in mice sensitized and treated with TDI. Treated mice were video recorded and the number of scratching bouts quantified by an observer.

RBL-2H3 cells [2] = test: TNF-α ELISA, 18 hrs (Example 3); type: cell-based, rat; settings: 1 μM A23187, 18 hours
Procedure: FIGS. 25A-25B. […] RBL-2H3 cells were plated overnight and stimulated with 1 μM A23187 in the absence or presence of each alkamide for 18 h. Culture supernatants were analyzed for TNF-α levels by ELISA and experiments were performed in triplicate (FIG. 25A). Percent inhibition of TNF-α secretion for each alkamide listed in FIG. 25B. *P<0.05, **P<0.01, ***P<0.001, one-way ANOVA with Dunnett's post hoc test compared to vehicle (FIG. 25A) or A15 (FIG. 25B).
RBL-2H3 cells (1.0×10^5 cells) were incubated overnight in a 24 well plate at 37° C. with 5% CO2. Cells were washed with 1×PBS and stimulated with 1 μM A23187 for 18 hrs in the absence or presence of each compound. The cells were centrifuged (1200×g, 5 min) and the supernatants were collected. The concentration of TNF-α in the supernatants were determined using the TNF-α ELISA kit.

TDI-induced ear swelling = type: in vivo, mouse
From the text: as §1
A15 and TDI induced hypersensitivity. Mice were sensitized to toluene-2,4-diisocyanate (TDI) via abdominal application. Subsequently, a hypersensitive response was induced in the ear by direct application of TDI and ear thickness measured as a sign of inflammation.

RBL-2H3 cells [3] = test: β-Hexosaminidase release assay (Example 3); type: cell-based, rat
Procedure: FIGS. 21A-21D. The inhibition of degranulation is dependent on the length of the alkamide fatty acid chain. RBL-2H3 cells were plated overnight, stimulated with 1 μM A23187 (FIG. 21A) or 5 ng/mL DNP-BSA (FIG. 21B) for 1 h in the absence or presence of each compound. Graphs display the mean percent β-hex release. Data are presented as the mean of 4 experiments. Percent inhibition of degranulation of A23187 (FIG. 21C) or DNP-BSA (FIG. 21D) using data from A and B, respectively. *P<0.05, **P<0.01, ***P<0.001, one-way ANOVA with Dunnett's post hoc test compared to vehicle (A, B) or A15 (C, D).
RBL-2H3 cells (1.0×10^5 cells) were incubated with or without 0.1 μg/mL of IgE-DNP overnight in a 96 well plate at 37° C. with 5% CO2. The cells were washed with Tyrode's buffer and assayed with few modifications (Kuehn, Radinger, & Gilfillan, 2010). Briefly, IgE-DNP sensitized cells were stimulated 1 hour with 5 ng/mL of DNP-BSA in the absence or presence of each compound and incubated at 37° C. with 5% CO2. For experiments using only A23187 as the stimulant, cells were washed with Tyrode's buffer and stimulated 1 hour with 1 μM A23187 in the absence or presence of each compound and incubated at 37° C. with 5% CO2. The stimulated cells were centrifuged at 1200×g for 5 minutes. The supernatant or cell lysate (30 μL) was incubated with 3.4 mg/mL of p-NAG (10 μL) for 1 hour at 37° C. The reaction was terminated by addition of 0.2 M sodium carbonate (pH 10) and the absorbance was read at OD405 nm on a BioTek Synergy HT microplate reader. The total 3-hexosaminidase released from the cell was calculated as the difference between the OD of the supernatant and blank plus the difference between the OD of the lysate and blank. The percent β-hexosaminidase released from the cell was calculated as the difference between the OD of the supernatant and blank divided by the total β-hexosaminidase released from the cell multiplied by 100: ODsupernatant−ODblank/[(ODlysate−ODblank)+(ODsupernatant−ODblank)]*100.

RBL-2H3 cells [4] = test: Calcium assay, Fluo-4 (Example 3); type: cell-based, rat
Procedure: FIGS. 22A-22D. The alkamide fatty acid is necessary for inhibition of calcium influx. RBL-2H3 cells were plated overnight, incubated with Fluo-4 AM for 1 h, stimulated by 1 μM A23187 (FIG. 22A) or 5 ng/mL DNP-BSA (FIG. 22B) in the absence or presence of each alkamide, and fluorescence was read for 2 mins every 5 secs. Data are presented as the mean change in RFU of 4 experiments. Percent inhibition of calcium influx was calculated for A23187 (FIG. 22C) and DNP-BSA (FIG. 22D) stimulated cells at 2 mins. *P<0.05, **P<0.01, and ***P<0.001 one-way ANOVA with Dunnett's post hoc test compared to A15.
RBL-2H3 cells (1.0×10^5 cells) were incubated overnight in a 96 well black-wall clear bottom plate with or without IgE-DNP (0.1 μg/mL) at 37° C. with 5% CO2. The assay was performed using the Fluo-4 Direct™ Calcium Assay Kit according to the manufacturer's instruction. Briefly, cells were incubated with the Fluo-4 Direct calcium reagent loading solution for 30 minutes at 37° C. with 5% CO2 then 30 mins at room temperature. Prior to stimulation, the well baseline fluorescence was measured every 5 seconds over 1 minute using a BioTek Synergy HT microplate reader with 485/20 nm excitation and 528/20 nm emission filters. Cells were stimulated with 1 μM A23187 or 5 ng/mL DNP (IgE-DNP) in the absence or presence of each compound, and the fluorescence was measured every 5 seconds over 2 minutes. The change in fluorescence (ΔRT) was calculated as the sample fluorescence minus the baseline fluorescence for each well.

TRPA1 = molecular target: T1, TRPA1 (Mus musculus, UniProt Q8BLA8); test: Calcium response of DRG neurons to mustard (allyl isothiocyanate); type: cell-based; settings: cultured DRG neurons, fluorescence microscopy
T1 construct: The receptors TRPA1 and TRPV1 are expressed on neurons; from tissue; host or cells: primary dorsal root ganglion neurons from mice
From the text: FIG. 11. Calcium response from DRG sensory neurons to alkamide of transient receptors. Mustard a TRPA1-receptor agonist activates DRG neurons in gray (A) and capsaicin, an agonist for TRPV1-receptors in the DRG neurons in red (B). Ligand A15 inhibits both TRPA1 and TRPV1 receptors activation in orange; however, 85Y a synthetic ligand only reduces the inhibition of TRPA1 but not TRPV1 receptors in blue. Total number of neurons (n)=135-145; p≤0.05.
as §1, with “In a third model, mice were sensitized to the chemical compound toluene-2,4-diisocyanate (TDI). TDI is an industrial chemical which causes hypersensitive skin lesions and itching in exposed humans and animals. The physiological response to TDI is complex involving type 2 T lymphocytes, cytokines, mast cells, and neurons.” left out
In vitro DRG neuron responses. […] Neurons were stimulated with mustard (allyl isothiocyanate) (A) an agonist for the receptor TRPA-1 or capsaicin (B) an agonist for the receptor TRPV-1 and calcium responses were measured in individual neurons by fluorescence microscopy. […]

T1 sequence (Q8BLA8 whole entry): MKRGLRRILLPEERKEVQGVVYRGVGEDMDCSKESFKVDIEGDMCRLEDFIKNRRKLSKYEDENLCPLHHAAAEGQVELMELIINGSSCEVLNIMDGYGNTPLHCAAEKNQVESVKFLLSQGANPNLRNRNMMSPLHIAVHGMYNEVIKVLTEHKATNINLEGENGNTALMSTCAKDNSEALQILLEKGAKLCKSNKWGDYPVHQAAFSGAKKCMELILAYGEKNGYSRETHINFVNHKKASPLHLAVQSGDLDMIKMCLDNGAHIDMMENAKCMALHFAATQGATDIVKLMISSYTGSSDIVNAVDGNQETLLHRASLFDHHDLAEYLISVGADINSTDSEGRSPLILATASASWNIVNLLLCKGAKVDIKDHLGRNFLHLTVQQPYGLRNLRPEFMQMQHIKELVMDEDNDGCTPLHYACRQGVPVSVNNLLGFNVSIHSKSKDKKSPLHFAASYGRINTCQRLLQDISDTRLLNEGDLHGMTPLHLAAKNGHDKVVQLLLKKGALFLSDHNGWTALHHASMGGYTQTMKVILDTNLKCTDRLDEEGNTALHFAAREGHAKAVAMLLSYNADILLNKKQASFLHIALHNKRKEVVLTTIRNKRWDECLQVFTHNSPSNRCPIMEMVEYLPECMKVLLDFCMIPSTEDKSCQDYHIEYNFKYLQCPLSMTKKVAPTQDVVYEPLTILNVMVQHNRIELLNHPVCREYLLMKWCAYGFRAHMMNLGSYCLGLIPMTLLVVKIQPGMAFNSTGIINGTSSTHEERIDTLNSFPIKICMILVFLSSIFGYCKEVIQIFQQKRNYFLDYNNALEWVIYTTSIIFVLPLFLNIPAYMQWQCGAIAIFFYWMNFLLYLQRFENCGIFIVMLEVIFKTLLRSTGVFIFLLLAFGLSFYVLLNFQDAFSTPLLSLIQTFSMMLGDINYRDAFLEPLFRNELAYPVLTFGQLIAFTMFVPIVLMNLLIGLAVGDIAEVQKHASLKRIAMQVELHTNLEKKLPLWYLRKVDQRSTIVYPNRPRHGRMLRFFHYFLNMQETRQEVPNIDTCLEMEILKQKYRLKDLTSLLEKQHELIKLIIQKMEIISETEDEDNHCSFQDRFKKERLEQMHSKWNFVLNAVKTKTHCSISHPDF

CCCCCCCC(=O)NCC(C)C [YM8-85, N-Isobutyloctanamide]
scratching bouts in TDI treated mice [1]: significant inhibition of scratching | percent inhibition of TNF-α secretion (RBL-2H3 cells [2]): 43% | TDI ear swelling (ear thickness) (TDI-induced ear swelling; 0.1%, first experiment (FIG. 13A)): significant responses were not seen | TDI ear swelling (ear thickness) (TDI-induced ear swelling; 0.1%, repeated experiment (FIG. 13B)): neither A15 nor YM8-85 at 0.1% produced significant inhibition | TDI ear swelling (ear thickness) (TDI-induced ear swelling; 1%, first experiment (FIG. 13A)): significant responses were not seen | percent inhibition of degranulation (RBL-2H3 cells [3]; 5 ng/mL DNP-BSA, 1 hour): 60% | percent inhibition of degranulation (RBL-2H3 cells [3]; 1 μM A23187, 1 hour): 64% | percent inhibition of calcium influx (RBL-2H3 cells [4]; 5 ng/mL DNP-BSA, at 2 minutes): 49% | percent inhibition of calcium influx (RBL-2H3 cells [4]; 1 μM A23187, at 2 minutes): 91% | DRG neuron calcium response to mustard (TRPA1 agonist) (TRPA1): inhibit
